Measurements published in PubChem BioAssay (NCI).
“And” between values parts separate entries of the source, which are not always exact repeats. Identical values can stand only once.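 These data come from cells grown in 96-well plates and exposed to compound for 48 hours at five concentrations. TGI: concentration producing complete growth inhibition.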

Tested on: SF-268 CNS
Assay: NCI anticancer screen, dose series, 48 h

`CN(Cc1ccccc1)c1cc(=O)n(C)c(=O)[nH]1` and `CCCCn1cnc2c(c(CC#N)nn2-c2ccccc2)c1=N` cannot be ordered by TGI: > 100 µM for the first, > 100 µM for the second.

Going from `COc1ccc(-c2c3c([nH]c(=S)c2C#N)CC(C)(C)CC3=O)cc1` to `COc1ccc(-c2oc(/C=N/NC(N)=S)c([N+](=O)[O-])c2-c2ccc(OC)c(OC)c2)cc1OC`, the TGI falls from > 100 µM to 58 µM.

`CC(=O)Oc1cc(C(F)(F)F)ccc1C(=O)OC1(C)OC(=O)c2ccc(C(F)(F)F)cc2O1` (stereo not drawn) and `N/C(=N\S(=O)(=O)c1c(C(F)(F)F)cccc1C(F)(F)F)Nc1ccc(Cl)cc1` cannot be ordered by TGI: > 100 µM for the first, > 100 µM for the second.

`Cc1cn([C@@H]2C[C@H](CO)[C@@H](O)C2)c(=O)[nH]c1=O` and `O=c1ccn(C2OC(CO)C(P(=O)(O)O)C2O)c(=O)[nH]1` (stereo not drawn) cannot be ordered by TGI: > 100 µM for the first, > 100 µM for the second.

First: CC1CN=C(N(C(=O)Nc2ccc(F)c(Cl)c2)c2ccccc2)S1 (stereo not drawn)
Second: O=C(Nc1ccccc1F)c1cc2ccc(O)cc2oc1=Nc1ccccc1F
The TGI of the first is higher: > 100 µM for the first, 5.26 µM for the second.

Compared with `C=Cc1ccc(C)[n+](C[Si](C)(C)O[Si](C)(C)C[n+]2cc(C=C)ccc2C)c1`, `Clc1ccc(CSCCc2ccncc2)cc1Cl` is lower in TGI: > 100 µM for the first, 49.5 µM for the second.

`O=c1[nH]cnc(NC2C=C(CO)C(O)C2O)c1[N+](=O)[O-]` (stereo not drawn) and `CC1(C)C2CC(=O)C1(C)C(O)C2Br` (stereo not drawn) cannot be ordered by TGI: > 100 µM for the first, > 100 µM for the second.

`O=C(NC(COC(=O)C(Cc1ccccc1)NC(=O)c1ccccc1)Cc1ccccc1)c1ccccc1` (stereo not drawn) and `O=C(Cc1ccccc1)NN1C(=O)/C(=C\c2ccccc2)SC1=Nc1ccccc1` cannot be ordered by TGI: > 50 µM for the first, > 100 µM for the second.

`CC(=O)OCC1OC(n2cc(I)c(=O)[nH]c2=O)C(OC(C)=O)C(OC(C)=O)C1OC(C)=O` (stereo not drawn) and `CCC1=CC2CN3Cn4c(c(COCc5c6n(c7ccccc57)CN5CC7C=C(CC)C5C6(C(=O)OC)C7)c5ccccc54)C(C(=O)OC)(C2)C13` cannot be ordered by TGI: > 100 µM for the first, > 100 µM for the second.

Going from `COc1ccc(/C=C2\C[C@H]3[C@@H]4CCC5=C/C(=N/O)CC[C@]5(C)[C@H]4CC[C@]3(C)\C2=N\O)cc1OC` to `C[C@]12CC[C@@H]3c4ccc(O)cc4CC[C@H]3[C@@H]1C/C(=C\c1ccncc1)[C@@H]2O`, the TGI falls from > 100 µM to 55.5 µM.

First: CC(C(=O)N1C(=O)N(C(=O)C(C)C(O)c2ccccc2)C2CCCCC21)C(O)c1ccccc1 (stereo not drawn)
Second: CCN1CCCC(NCc2c3ccccc3c(CNC3CCCN(CC)C3)c3ccccc23)C1 (stereo not drawn)
The TGI of the first is higher: > 100 µM for the first, 38.4 µM for the second.

`O=C1NCCS(=O)(=O)N[C@@H](CC2=CC=CCC2)C(=O)N2CCCC12` (stereo partly drawn) and `COc1ccc(CC2c3c(cc(OC)c(OC)c3OC)CCN2C)cc1OC` (stereo not drawn) cannot be ordered by TGI: > 100 µM for the first, > 100 µM for the second.

`CC(C)=CCC/C(C)=C/COC(C)(C)C1=CCC(C)CC1` (stereo not drawn) (tested in a mixture with another compound) and `CC(C)(C)OC(=O)NCCC(N)=S` cannot be ordered by TGI: > 100 µM for the first, > 100 µM for the second.

Compared with `COc1c(O)c2c3c(c(C)cc(O)c3c1O)C(=O)C(O)(C(C)(C)C(C)=O)C2=O` (stereo not drawn), `Nc1nc(N)c(N=O)c(Nc2ccc(Br)cc2)n1` is lower in TGI: > 100 µM for the first, 57.1 µM for the second.

`S=C(/N=c1\sc(Nc2ccc(Cl)cc2)nc2sc3c(c12)CCN(N1CCc2c(sc4nc(Nc5ccc(Cl)cc5)s/c(=N\C(=S)Nc5ccc(Cl)cc5)c24)C1)C3)Nc1ccc(Cl)cc1` was tested, and the TGI was > 100 µM.

Tested on: IGROV1 ovarian
Assay: NCI anticancer screen, dose series, 48 h

First: CC12CCC3C(CCC4CC(OC(=O)Cc5ccc(N(CCCl)CCCl)cc5)CCC43C)C1CCC(=O)N2 (stereo not drawn)
Second: COc1ccc(/C=C2\C[C@H]3[C@@H]4CCC5=C/C(=N/O)CC[C@]5(C)[C@H]4CC[C@]3(C)\C2=N\O)cc1OC
The TGI of the first is lower: 31 µM for the first, > 100 µM for the second.

`CCN(CC)CCCNC(=O)c1ccc([N+](=O)[O-])cc1O` and `CCCCn1cnc2c(c(CC#N)nn2-c2ccccc2)c1=N` cannot be ordered by TGI: > 100 µM for the first, > 100 µM for the second.

`COc1ccc(-c2c3c([nH]c(=S)c2C#N)CC(C)(C)CC3=O)cc1` and `COc1ccc(-c2oc(/C=N/NC(N)=S)c([N+](=O)[O-])c2-c2ccc(OC)c(OC)c2)cc1OC` cannot be ordered by TGI: > 100 µM for the first, > 100 µM for the second.

First: CC(=O)Oc1cc(C(F)(F)F)ccc1C(=O)OC1(C)OC(=O)c2ccc(C(F)(F)F)cc2O1 (stereo not drawn)
Second: N/C(=N\S(=O)(=O)c1c(C(F)(F)F)cccc1C(F)(F)F)Nc1ccc(Cl)cc1
The TGI of the first is higher: > 100 µM for the first, 60.2 µM for the second.

`Cc1cn([C@@H]2C[C@H](CO)[C@@H](O)C2)c(=O)[nH]c1=O` and `CC(=O)OCC1OC(n2cc(I)c(=O)[nH]c2=O)C(OC(C)=O)C(OC(C)=O)C1OC(C)=O` (stereo not drawn) cannot be ordered by TGI: > 100 µM for the first, > 100 µM for the second.

Going from `CC1CN=C(N(C(=O)Nc2ccc(F)c(Cl)c2)c2ccccc2)S1` (stereo not drawn) to `O=C(Nc1ccccc1F)c1cc2ccc(O)cc2oc1=Nc1ccccc1F`, the TGI falls from > 100 µM to 4.13 µM.

Compared with `C=Cc1ccc(C)[n+](C[Si](C)(C)O[Si](C)(C)C[n+]2cc(C=C)ccc2C)c1`, `Clc1ccc(CSCCc2ccncc2)cc1Cl` is lower in TGI: > 100 µM for the first, 52.2 µM for the second.

`O=c1[nH]cnc(NC2C=C(CO)C(O)C2O)c1[N+](=O)[O-]` (stereo not drawn) and `CC1(C)C2CC(=O)C1(C)C(O)C2Br` (stereo not drawn) cannot be ordered by TGI: > 100 µM for the first, > 100 µM for the second.

`O=C(NC(COC(=O)C(Cc1ccccc1)NC(=O)c1ccccc1)Cc1ccccc1)c1ccccc1` (stereo not drawn) and `CC(C(=O)N1C(=O)N(C(=O)C(C)C(O)c2ccccc2)C2CCCCC21)C(O)c1ccccc1` (stereo not drawn) cannot be ordered by TGI: > 50 µM for the first, > 100 µM for the second.

Compared with `C(=Nc1ccc(-c2nc3ccccc3o2)cc1)c1ccco1`, `CCN1CCCC(NCc2c3ccccc3c(CNC3CCCN(CC)C3)c3ccccc23)C1` (stereo not drawn) is lower in TGI: > 100 µM for the first, 55.7 µM for the second.

`O=C1NCCS(=O)(=O)N[C@@H](CC2=CC=CCC2)C(=O)N2CCCC12` (stereo partly drawn) and `CC(C)=CCC/C(C)=C/COC(C)(C)C1=CCC(C)CC1` (stereo not drawn) (tested in a mixture with another compound) cannot be ordered by TGI: > 100 µM for the first, > 100 µM for the second.

With `CC(C)(C)OC(=O)NCCC(N)=S` the TGI was > 100 µM.

`COc1cc2c(cc1OC)[C@H]1CN3CCC[C@H]3C=C1c1ccc(OC)c(O)c1-2` was tested, and the TGI was 0.00323 µM and 0.0137 µM.
